The values that follow come from article PMC8154566, “Scaffold-Hopping Strategy on a Series of Proteasome Inhibitors Led to a Preclinical Candidate for the Treatment of Visceral Leishmaniasis” (Journal of Medicinal Chemistry, 2021).

In one series the test system is L. donovani amastigotes. As to the kind of experiment: INMAC assay: intramacrophage L. donovani in differentiated THP-1 cells. Format: cell-based, Leishmania donovani. As to conditions: Leishmania donovani; for EC50: THP-1, Table 6, at least three replicates, SD ≤0.4, read-out: INMAC pEC50 (converted). As to the method: (§1) Intramacrophage L. donovani Assay. This assay was conducted as previously described, except for […]

Series [1] can be described thus: FaSSIF (fasted state simulated intestinal fluid) solubility. Format: physicochemical. As to conditions: for solubility at 4 h: pH 6.5, Table 6; for solubility: supplementary csv. Here is the method: (§2) Intramacrophage L. donovani Assay. This assay was conducted as previously described, except for compound exposure time, which was 96 h instead of 72 h.4
(§3) Intrinsic Clearance. This assay was conducted as previously described.5 Aqueous Solubility. This assay was conducted as previously described.6
(§4) FaSSIF Solublity. This assay was conducted as previously described.5,7
(§5) In vivo Mouse Efficacy Studies. In vivo studies were carried out as previously described, with minor modifications.7 Briefly: Control drug used was Miltefosine (30 mg/kg orally, twice daily for 5 days), vehicle used was 10% (v/v) dimethyl sulfoxide (DMSO), 40% polyethylene glycol 400, and 50% deionized water (10 Ml/kg orally, twice daily for 5 days) and mice were treated with test compound intraperitoneally (50 mg/kg twice daily for 5 days). 5
(§6) All regulated procedures on living animals were carried out under the authority of a project license issued by the Home Office under the Animals (Scientific Procedures) Act 1986, as amended in 2012 (and in compliance with EU Directive EU/2010/63). Infected animals had access to food and water ad libitum and were housed under a 12 hour light/dark photoperiod. Animals used in these experiments were female NMRI and Balb/c mice (Harlan, UK).
(§7) Test compound DDD01008714 was dosed orally (P.O.) at 10 mg free base/kg (dose volume 10 mL/kg; dose vehicle: 10% (vol/vol) dimethyl sulfoxide (DMSO), 40% polyethylene glycol 400 (PEG400) and 50% deionized water) to female NMRI mice (n = 3) or intravenously (I.V.) at 3 mg free base/kg (dose volume 5 mL/kg; dose vehicle: 10% (vol/vol) dimethyl sulfoxide (DMSO) and 90% Saline) to female Balb/c mice (n = 3). Blood samples (10 μL) where taken from the tail vein of […]

Series [2] in a line: Kinetic aqueous solubility by CLND. The series is classed as physicochemical. Here is the method:
We had successfully used these criteria in the hit to lead stage to identify compounds for in vivo proof-of-concept studies in another program, which subsequently led to the identification of preclinical candidate DDD853651/GSK3186899 active against CRK12.[7] […] A pharmacokinetic (PK) study was thus performed, dosed at 10 mg/kg po and 3 mg/kg iv. […] With the limited knowledge of the PK/PD drivers for the treatment of VL, we considered this to be a suitable profile for the progression of 4 into a previously reported mouse efficacy model of VL,[6],[7],[17],[18] where it was dosed twice daily at 50 mg/kg ip in order to further maximize exposure and give the best chance of achieving proof-of-concept.
as §2, §3, §4, §5, §6, §7

For a further series, the system named is THP-1 cells. As to the kind of experiment: THP-1 host cell read-out of the INMAC assay. The series is classed as cell-based. To be noted: Homo sapiens, THP-1; for EC50: Table 6, read-out: THP-1 pEC50 (converted); for IC50: supplementary csv, read-out: THP1 pIC50 (converted). Here is the method: as §1
The nature of series [3]: Mouse liver microsomal intrinsic clearance. Format: in vitro ADME. As to conditions: for Mouse CLi: Table 6, mouse liver microsomes; for Cli (mouse, ml/min/g): supplementary csv. Here is the method: as §2, §3, §4, §5, §6, §7
(In general: Microsomes from liver hold many membrane-bound enzymes, among them those of drug oxidation.)

[4] abbreviates: Table 6, kinetic, CLND, read-out: Aq. solubility.
Setting [5] is: supplementary csv, read-out: Aqueous Solubility.

Converted amounts (≈) assume the structure as drawn.

By solubility is commonly meant how much of the substance goes into solution per volume.

Turning to `O=C(Nc1ccc(F)c(-c2ccn3c(-c4ccccn4)cnc3n2)c1)N1CCCC1` [Compound 29, N-(4-Fluoro-3-(3-(pyridin-2-yl)imidazo[1,2-a]pyrimidin-7-yl)phenyl)pyrrolidine-1-carboxamide], in the series with L. donovani amastigotes, the EC50 was 398 nM. Further, in series [1], the concentration in solution (solubility at 4 h) came to 273 µM (≈ 110 µg/mL) and the solubility was 270 µM (≈ 109 µg/mL). In series [2] (setting [4]), the solubility was 74 µM (≈ 29.8 µg/mL). Besides, in the series with THP-1 cells, the EC50 is > 50.1 µM and the IC50 was > 50.1 µM. In series [3], the “Mouse CLi” value is recorded as 1.8 mL/min/g and the “Cli (mouse, ml/min/g)” value amounted to 1.8 mL/min/g.

For the compound `CC(C)c1cnc2nc(-c3cc(NC(=O)N4CCCC4)ccc3F)ccn12` [Compound 30, N-(4-Fluoro-3-(3-isopropylimidazo[1,2-a]pyrimidin-7-yl)phenyl)pyrrolidine-1-carboxamide], the EC50 in the series with L. donovani amastigotes is 1260 nM. In series [1], this compound registered a solubility at 4 h of 71 µM (≈ 26.1 µg/mL) and a solubility of 70 µM (≈ 25.7 µg/mL). The solubility in series [2] (setting [4]) turned out to be 231 µM (≈ 84.9 µg/mL). In addition, the solubility in series [2] (setting [5]) is 240 µM (≈ 88.2 µg/mL). Further, in the series with THP-1 cells, the EC50 is 50.1 µM and the IC50 was 50.1 µM. Besides, in series [3], the “Mouse CLi” value is reported as 4.6 mL/min/g and the “Cli (mouse, ml/min/g)” value came out at 4.6 mL/min/g.

As for `CC(C)Cc1cnc2nc(-c3cc(NC(=O)N4CCCC4)ccc3F)ccn12` [Compound 31, N-(4-Fluoro-3-(3-isobutylimidazo[1,2-a]pyrimidin-7-yl)phenyl)pyrrolidine-1-carboxamide], in the series with L. donovani amastigotes, the EC50 is 501 nM. In addition, in series [1], the concentration in solution (solubility at 4 h) came to 178 µM (≈ 67.9 µg/mL) and the solubility is 180 µM (≈ 68.7 µg/mL). Besides, in series [2] (setting [4]), the solubility was determined as 182 µM (≈ 69.4 µg/mL). In series [2] (setting [5]), the solubility was 180 µM (≈ 68.7 µg/mL). In addition, in the series with THP-1 cells, the EC50 is 63.1 µM and the IC50 was 63.1 µM. In addition, in series [3], the “Mouse CLi” value came out at 15 mL/min/g and the “Cli (mouse, ml/min/g)” value was 15 mL/min/g.

Regarding `O=C(Nc1ccc(F)c(-c2ccn3c(CN4CCOCC4)cnc3n2)c1)N1CCCC1` [Compound 32, N-(4-Fluoro-3-(3-(morpholinomethyl)imidazo[1,2-a]pyrimidin-7-yl)phenyl)pyrrolidine-1-carboxamide], the EC50 in the series with L. donovani amastigotes is 10000 nM. In series [1], this compound had a solubility at 4 h of 728 µM (≈ 309 µg/mL) and a solubility of 730 µM (≈ 310 µg/mL). For the same compound, the solubility in series [2] (setting [4]) was ≥ 348 µM. Also, in the series on THP-1 cells, the EC50 is 63.1 µM and the IC50 was 63.1 µM. Also, in series [3], the “Mouse CLi” value worked out at 16 mL/min/g and the “Cli (mouse, ml/min/g)” value was 16 mL/min/g.

For the compound `O=C(Nc1ccc(F)c(-c2ccn3c(N4CCCCC4)cnc3n2)c1)N1CCCC1` [Compound 34, N-(4-Fluoro-3-(3-(piperidin-1-yl)imidazo[1,2-a]pyrimidin-7-yl)phenyl)pyrrolidine-1-carboxamide], the EC50 with L. donovani amastigotes is 501 nM. Further, the solubility at 4 h in series [1] is 32 µM (≈ 13.1 µg/mL). For the same compound, in series [2] (setting [4]), the solubility turned out to be 358 µM (≈ 146 µg/mL). In addition, the solubility in series [2] (setting [5]) is 360 µM (≈ 147 µg/mL). In the series on THP-1 cells, the EC50 was 50.1 µM and the IC50 is 50.1 µM. Further, in series [3], the “Mouse CLi” value is given as 8.4 mL/min/g and the “Cli (mouse, ml/min/g)” value was determined as 8.4 mL/min/g.

With `O=C(Nc1ccc(F)c(-c2ccn3c(N4CCNCC4)cnc3n2)c1)N1CCCC1` [Compound 35, N-(4-Fluoro-3-(3-(piperazin-1-yl)imidazo[1,2-a]pyrimidin-7-yl)phenyl)pyrrolidine-1-carboxamide], the IC50 in the series with L. donovani amastigotes (THP-1, read-out: LdInMac pIC50 (converted)) was > 50.1 µM; with THP-1 cells it was > 50.1 µM. The EC50 in the series with L. donovani amastigotes was > 50100 nM; with THP-1 cells it was > 50.1 µM. This compound also showed a solubility at 4 h in series [1] of 5 µM (≈ 2.05 µg/mL). Also, the solubility was ≥ 333 µM in series [2] (setting [4]) and ≥ 330 µM in series [2] (setting [5]). Besides, the “Mouse CLi” value in series [3] is <0.5 mL/min/g. Moreover, in series [3], the “Cli (mouse, ml/min/g)” value is <0.5 mL/min/g.
